The results in this text go back to patent US7741327B2 (Hoffmann-La Roche Inc., priority 2008, dated 2010).

The structures appear in SMILES notation.

The first assay addresses T1, Recombinant human liver GK1 (GST-GK) (Homo sapiens, UniProt P35557).
T1 construct: made in house; host or cells: E. coli
T1 sequence (P35557 1-466 isoform P35557-2): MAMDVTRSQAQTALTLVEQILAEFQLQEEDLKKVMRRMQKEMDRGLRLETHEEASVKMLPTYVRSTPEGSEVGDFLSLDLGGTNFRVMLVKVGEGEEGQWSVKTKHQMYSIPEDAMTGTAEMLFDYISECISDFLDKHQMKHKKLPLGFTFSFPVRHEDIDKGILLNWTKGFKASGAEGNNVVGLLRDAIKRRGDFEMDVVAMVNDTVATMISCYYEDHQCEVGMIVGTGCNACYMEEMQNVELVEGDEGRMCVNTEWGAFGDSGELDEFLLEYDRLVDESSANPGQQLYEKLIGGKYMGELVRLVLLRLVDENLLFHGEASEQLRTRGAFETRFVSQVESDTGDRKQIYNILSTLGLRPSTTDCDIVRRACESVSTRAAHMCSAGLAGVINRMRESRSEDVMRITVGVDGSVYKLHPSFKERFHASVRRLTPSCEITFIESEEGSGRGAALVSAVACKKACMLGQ
As to the kind of experiment: In vitro glucokinase activity (G6PDH-coupled NADH assay). In kind it is biochemical. Particulars: 30° C., 5 mM D-glucose, 10% DMSO. On the procedure:
Glucokinase In Vitro Assay Protocol: Glucokinase (GK) was assayed by coupling the production of glucose-6-phosphate to the generation of NADH with glucose-6-phosphate dehydrogenase (G6PDH, 0.75-1 kunits/mg; Boehringer Mannheim, Indianapolis, Ind.) from Leuconostoc mesenteroides as the coupling enzyme (Scheme 2).
Recombinant human liver GK1 was expressed in E. coli as a glutathione S-transferase fusion protein (GST-GK) [Liang et al, 1995] and was purified by chromatography over a glutathione-Sepharose 4B affinity column using the procedure provided by the manufacturer (Amersham Pharmacia Biotech, Piscataway, N.J.).
The assay was conducted at 30° C. in a flat bottom 96-well tissue culture plate from Costar (Cambridge, Mass.) with a final incubation volume of 120 μL. The incubation reaction contained the following: 25 mM Hepes buffer (pH 7.1), 25 mM KCl, 5 mM D-glucose, 1 mM ATP, 1.8 mM NAD, 2 mM MgCl2, 1 μM sorbitol-6-phosphate, 1 mM dithiothreitol, test drug or 10% dimethylsulfoxide, ˜7 units/ml G6PDH, and GK (see below). All organic reagents were >98% pure and were from Boehringer Mannheim with the exceptions of D-glucose and Hepes which were from Sigma Chemical Co, St Louis, Mo. Test compounds were dissolved in dimethylsulfoxide and were added to the incubation reaction minus GST-GK in a volume of 12 μL to yield a final dimethylsulfoxide concentration of 10%. This mix was pre-incubated in the temperature controlled chamber of a SPECTRAmax 250 microplate spectrophotometer (Molecular Devices Corporation, Sunnyvale, Calif.) for 10 min to allow temperature equilibrium and then the reaction was started by the addition of 20 μL GST-GK.
After addition of enzyme, the increase in optical density (OD) at 340 nm was monitored spectrophotometrically to determine the rate of change (OD340 per min). The GK activity (OD340/min) in control wells (10% DMSO minus GK activators) was compared with the activity in wells containing test GK activators, and the concentration of activator that produced a 50% increase in the activity of GK, i.e., the SC1.5, was calculated. The table below provides the in vitro glucokinase activity for the compounds in the Examples: […]
As to `CC[C@H](C)CC(C(=O)Nc1ccn(C[C@@H]2COC(C)(C)O2)n1)N1CC(Oc2ccccc2Cl)=CC1=O` (mixture of isomers) [Example 248, (S)-2-[4-(2-Chloro-phenoxy)-2-oxo-2,5-dihydro-pyrrol-1-yl]-4-methyl-hexanoic acid [1-((R)-2,2-dimethyl-[1,3]dioxolan-4-ylmethyl)-1H-pyrazol-3-yl]-amide], the “SC1.5 (concentration of activator that produced a 50% increase in the activity of GK)” value is 0.304 µM.

Take `CC[C@H](C)CC(C(=O)Nc1ccn(C[C@@H](O)CO)n1)N1CC(Oc2ccccc2Cl)=CC1=O` (mixture of isomers) [Example 249, (S)-2-[4-(2-Chloro-phenoxy)-2-oxo-2,5-dihydro-pyrrol-1-yl]-4-methyl-hexanoic acid [1-((R)-2,3-dihydroxy-propyl)-1H-pyrazol-3-yl]-amide]: the “SC1.5 (concentration of activator that produced a 50% increase in the activity of GK)” value is 0.125 µM.

For the molecule `CC(C)(O)Cn1ccc(NC(=O)[C@H](C[C@H]2C[C@H](C)C2)N2CC(Oc3ccccc3Cl)=CC2=O)n1` (single isomer, unassigned) [Example 215], the “SC1.5 (concentration of activator that produced a 50% increase in the activity of GK)” value came out at 0.014 µM.

With `CC(C)(O)Cn1ccc(NC(=O)[C@@H](C[C@H]2C[C@H](C)C2)N2CC(Oc3ccccc3Cl)=CC2=O)n1` (single isomer, unassigned) [Example 216], the “SC1.5 (concentration of activator that produced a 50% increase in the activity of GK)” value is 2.715 µM.

Turning to `CC[C@H](C)C[C@H](C(=O)Nc1ccn(C[C@@H](O)CO)n1)N1CC(Oc2ccccc2Cl)=CC1=O` (single isomer, unassigned) [Example 250], the “SC1.5 (concentration of activator that produced a 50% increase in the activity of GK)” value amounted to 6.017 µM.

On to `CC[C@H](C)C[C@@H](C(=O)Nc1ccn(C[C@@H](O)CO)n1)N1CC(Oc2ccccc2Cl)=CC1=O` (single isomer, unassigned) [Example 251], for which the “SC1.5 (concentration of activator that produced a 50% increase in the activity of GK)” value was 0.056 µM.

As to `CC[C@@H](C)C[C@H](C(=O)Nc1ccn(C[C@@H](O)CO)n1)N1CC(Oc2ccccc2Cl)=CC1=O` (single isomer, unassigned) [Example 254], the “SC1.5 (concentration of activator that produced a 50% increase in the activity of GK)” value turned out to be 16.154 µM.

For `CCOc1ccc(F)c(OC2=CC(=O)N([C@@H](CC3CCOCC3)C(=O)Nc3ccn(CC(C)(C)O)n3)C2)c1F` (single isomer, unassigned) [Example 257], the “SC1.5 (concentration of activator that produced a 50% increase in the activity of GK)” value was 0.006 µM.

For `CCOc1ccc(F)c(OC2=CC(=O)N([C@H](CC3CCOCC3)C(=O)Nc3ccn(CC(C)(C)O)n3)C2)c1F` (single isomer, unassigned) [Example 258], the “SC1.5 (concentration of activator that produced a 50% increase in the activity of GK)” value was 4.435 µM.

Turning to `COC1=CC(=O)N([C@@H](CC2CCCC2)C(=O)Nc2ccn(CC(C)(C)O)n2)C1` [Example 1, (S)-3-Cyclopentyl-N-[1-(2-hydroxy-2-methyl-propyl)-1H-pyrazol-3-yl]-2-(4-methoxy-2-oxo-2,5-dihydro-pyrrol-1-yl)-propionamide], the “SC1.5 (concentration of activator that produced a 50% increase in the activity of GK)” value turned out to be 3.771 µM.

As to `COC1=CC(=O)N([C@@H](CC2CCCC2)C(=O)Nc2ncc(Cl)s2)C1` [Example 2, (S)-N-(5-Chloro-thiazol-2-yl)-3-cyclopentyl-2-(4-methoxy-2-oxo-2,5-dihydro-pyrrol-1-yl)-propionamide], the “SC1.5 (concentration of activator that produced a 50% increase in the activity of GK)” value was 1.672 µM.

`COC1=CC(=O)N([C@@H](CC2CCCC2)C(=O)Nc2nc3ccccc3s2)C1` [Example 3, (S)-N-Benzothiazol-2-yl-3-cyclopentyl-2-(4-methoxy-2-oxo-2,5-dihydro-pyrrol-1-yl)-propionamide]: the “SC1.5 (concentration of activator that produced a 50% increase in the activity of GK)” value was more than 30 µM.

With `COC1=CC(=O)N([C@@H](CC2CCCC2)C(=O)Nc2nc(C)ns2)C1` [Example 4], the “SC1.5 (concentration of activator that produced a 50% increase in the activity of GK)” value came out at 6.186 µM.

For the molecule `COC1=CC(=O)N([C@@H](CC2CCCC2)C(=O)Nc2ccn(CC(C)(C)OC)n2)C1` [Example 5, (S)-3-Cyclopentyl-N-[1-(2-methoxy-2-methyl-propyl)-1H-pyrazol-3-yl]-2-(4-methoxy-2-oxo-2,5-dihydro-pyrrol-1-yl)-propionamide], the “SC1.5 (concentration of activator that produced a 50% increase in the activity of GK)” value came to 3.15 µM.

Regarding `COC1=CC(=O)N([C@@H](CC2CCCC2)C(=O)Nc2ccn(C)n2)C1` [Example 6, (S)-3-Cyclopentyl-2-(4-methoxy-2-oxo-2,5-dihydro-pyrrol-1-yl)-N-(1-methyl-1H-pyrazol-3-yl)-propionamide], the “SC1.5 (concentration of activator that produced a 50% increase in the activity of GK)” value is 12.645 µM.

As to `COC1=CC(=O)N([C@@H](CC2CCCC2)C(=O)Nc2ccn(CCNC(=O)OC(C)(C)C)n2)C1` [Example 7, (2-{3-[(S)-3-Cyclopentyl-2-(4-methoxy-2-oxo-2,5-dihydro-pyrrol-1-yl)-propionylamino]-pyrazol-1-yl}-ethyl)-carbamic acid t-butylester], the “SC1.5 (concentration of activator that produced a 50% increase in the activity of GK)” value was 13.732 µM.

With `COC1=CC(=O)N([C@@H](CC2CCCC2)C(=O)Nc2ncc(F)s2)C1` [Example 8, (S)-3-Cyclopentyl-N-(5-fluoro-thiazol-2-yl)-2-(4-methoxy-2-oxo-2,5-dihydro-pyrrol-1-yl)-propionamide], the “SC1.5 (concentration of activator that produced a 50% increase in the activity of GK)” value worked out at 1.365 µM.

Regarding `COC1=CC(=O)N([C@@H](CC2CCCC2)C(=O)Nc2cnccn2)C1` [Example 9, (S)-3-Cyclopentyl-2-(4-methoxy-2-oxo-2,5-dihydro-pyrrol-1-yl)-N-pyrazin-2-yl-propionamide], the “SC1.5 (concentration of activator that produced a 50% increase in the activity of GK)” value was found to be 6.54 µM.

For `COC(=O)c1ccc(NC(=O)[C@H](CC2CCCC2)N2CC(OC)=CC2=O)nc1` [Example 10, 6-[(S)-3-Cyclopentyl-2-(4-methoxy-2-oxo-2,5-dihydro-pyrrol-1-yl)-propionylamino]-nicotinic acid methyl ester], the “SC1.5 (concentration of activator that produced a 50% increase in the activity of GK)” value stood at 1.855 µM.

Take `COC1=CC(=O)N([C@@H](CC2CCCC2)C(=O)Nc2ccc(C(=O)O)cn2)C1` [Example 11, 6-[(S)-3-Cyclopentyl-2-(4-methoxy-2-oxo-2,5-dihydro-pyrrol-1-yl)-propionylamino]-nicotinic acid]: the “SC1.5 (concentration of activator that produced a 50% increase in the activity of GK)” value was determined as 3.99 µM.

As for `COC1=CC(=O)N([C@@H](CC2CCCC2)C(=O)Nc2ccn(Cc3cccc(C#N)c3)n2)C1` [Example 12, (S)-N-[1-(3-Cyano-benzyl)-1H-pyrazol-3-yl]-3-cyclopentyl-2-(4-methoxy-2-oxo-2,5-dihydro-pyrrol-1-yl)-propionamide], the “SC1.5 (concentration of activator that produced a 50% increase in the activity of GK)” value was found to be 3.591 µM.

For `COC[C@H](C)OC1=CC(=O)N([C@@H](CC2CCCC2)C(=O)Nc2ccn(CC(C)(C)O)n2)C1` [Example 13, (S)-3-Cyclopentyl-N-[1-(2-hydroxy-2-methyl-propyl)-1H-pyrazol-3-yl]-2-[4-((S)-2-methoxy-1-methyl-ethoxy)-2-oxo-2,5-dihydro-pyrrol-1-yl]-propionamide], the “SC1.5 (concentration of activator that produced a 50% increase in the activity of GK)” value was found to be 4.062 µM.

As to `CC(C)(O)Cn1ccc(NC(=O)[C@H](CC2CCCC2)N2CC(OCc3ccccc3)=CC2=O)n1` [Example 14, (S)-2-(4-Benzyloxy-2-oxo-2,5-dihydro-pyrrol-1-yl)-3-cyclopentyl-N-[1-(2-hydroxy-2-methyl-propyl)-1H-pyrazol-3-yl]-propionamide], the “SC1.5 (concentration of activator that produced a 50% increase in the activity of GK)” value worked out at 0.368 µM.

With `CC(C)OC1=CC(=O)N([C@@H](CC2CCCC2)C(=O)Nc2ccn(CC(C)(C)O)n2)C1` [Example 15, (S)-3-Cyclopentyl-N-[1-(2-hydroxy-2-methyl-propyl)-1H-pyrazol-3-yl]-2-(4-isopropoxy-2-oxo-2,5-dihydro-pyrrol-1-yl)-propionamide], the “SC1.5 (concentration of activator that produced a 50% increase in the activity of GK)” value is 1.832 µM.

The same assay, now with this note: at 30 μM test compound.
Turning to `COC1=CC(=O)N([C@@H](CC2CCCC2)C(=O)Nc2nc3ccccc3s2)C1` [Example 3, (S)-N-Benzothiazol-2-yl-3-cyclopentyl-2-(4-methoxy-2-oxo-2,5-dihydro-pyrrol-1-yl)-propionamide], the “fold act. @ 30 μM” value is given as 1.3 fold.
